Results on one compound are retold here after patent publication US20080025938A1, “Method and composition for permanently shaping hair” (priority 2006, published 2008).

For data set [1], the system named is hair. Nature of the data set: Permanent waving of hair on curlers with the composition, then oxidative fixing; assessed by hairdresser and customer. The data set is classed as in vivo, human. As to conditions: used alone as the hair keratine reducing agent. From the text:
The method of permanent shaping of human hair according to the invention is defined as: A method for permanent shaping of hair, said method comprising the steps of: • (a) putting the hair in a desired shape; • (b) before and/or after the hair is put in the desired shape, applying an amount of a permanent shaping composition to the hair, and allowing the permanent shaping composition to act on the hair for a predetermined acting time sufficient for the permanent shaping of the hair; • (c) subsequently rinsing the hair with water or applying an intermediate treatment agent; • (d) performing an oxidative post-treatment of the hair; • (e) after the oxidative post-treatment, rinsing the hair with water and drying the hair, wherein said permanent shaping composition is a composition according to any-one of claims 1 to 13. Details of the method are given as follows. First the hair (which is washed and towel-dried) is separated into multiple sections and then these sections are rolled onto curlers. […] After the rolling on curlers is finished, the curlers are thoroughly wetted down using the required quantity of the permanent shaping composition, preferably about 60 g to about 120 g. […] The fixing composition is used in a quantity of about 50 g to about 200 g, preferably about 80 g to about 100 g, depending on hair thickness and length. […]

The conditions of data set [2]: versus N-methylmercaptoacetamide and N-hydroxyethylmercaptoacetamide; cited from earlier work.

As to `O=C(CS)NCCCO` [N-(3′-hydroxypropyl)-2-mercapto-acetamide], the “fastness of the permanent shaped hair to humidity, particularly sweat” value in data set [1] is reported as “not sufficient”. The sensitization rates entry in data set [2] is recorded as “substantially lower sensitization rates”.
